Legend:
PrEC cells = test: MTT cell viability, normal prostate epithelial cells (PrECs); assay type: cell-based, human; conditions: 24 h, Prostate Epithelial Cell Basal Medium with growth supplements
Protocol: (§1) Cell culture—LNCaP androgen-dependent (p53+/+) and PC-3 androgen-nonresponsive (P53−/−) prostate cancer cells were obtained from the American Type Culture Collection (Manassas, Va.). The preparation of the stable Bcl-xL-overexpressing LNCaP clone B3 (LNCaP/B3) was previously described (18). PC-3, LNCaP, and LNCaP/B3 cells were maintained in RPMI 1640 supplemented with 10% fetal bovine serum (FBS) at 37° C. in a humidified incubator containing 5% carbon dioxide. Normal human prostate epithelial (PrEC) cells were purchased from Cambrex Bio Science Walkersville, Inc. (East Tutherford, N.J.). Cells were maintained in Prostate Epithelial Cell Medium with growth supplements at 37° C. in a humidified incubator containing 5% carbon dioxide. The recommended seeding density for subculture is 2,500 cells/cm^2. It takes 6-9 days from subculture to attain confluency.
Cell viability analysis—The effect of individual test agents on cell viability was assessed by using the MTT assay in 6 to 12 replicates. PC3, LNCaP, and B3-LNCaP cells were seeded and incubated in poly-p-lysine-coated, 96-well, flat-bottomed plates in RPMI 1640 medium supplemented with 10% FBS medium for 24 hours. PrEC cells were seeded at the recommend density in 96-well, flat-bottomed plates in Prostate Epithelial Cell Medium with growth supplements for 3 days. All cells were exposed to various concentrations of test agents dissolved in ethanol (for α-tocopherol, α-tocopheryl succinate, and TS-3) or DMSO (all other test agents used) with a final concentration of 0.1% in serum-free RPMI 1640 medium for PC3, LNCaP, and LNCaP/B3 cells or in Prostate Epithelial Cell Basal Medium with growth supplements for PrEC cells. Controls received DMSO or ethanol vehicle at a concentration equal to that in drug-treated cells. The medium was removed, replaced by 200 μL of 0.5 mM MTT in 10% FBS-containing RPMI 1640 medium, and cells were incubated in the CO2 incubator at 37° C. for 2 h. […] Absorbance at 570 nm was determined on a plate reader.

Bcl-xL = Bcl-xL (Homo sapiens, UniProt Q07817); test: Competitive fluorescence polarization assay, Bak BH3 peptide binding to Bcl-xL; conditions: for activity in inhibiting Bak peptide-Bcl-xL binding: even at 100 μM
Chain of Bcl-xL (Q07817 1-212 limits assumed): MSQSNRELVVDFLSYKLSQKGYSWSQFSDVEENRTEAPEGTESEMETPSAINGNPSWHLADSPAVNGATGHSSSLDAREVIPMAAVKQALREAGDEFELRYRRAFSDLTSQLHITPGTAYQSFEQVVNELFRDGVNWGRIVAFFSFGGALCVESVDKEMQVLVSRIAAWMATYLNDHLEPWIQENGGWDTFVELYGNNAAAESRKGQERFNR
Protocol: Competitive fluorescence polarization assay—The binding affinity of the test agent to Bcl-XL was analyzed by a competitive fluorescence polarization assay in which the ability of the agent to displace the binding of a Bak BH3-domain peptide to either Bcl-2 or Bcl-XL was determined. Flu-BakBH3, a Bak-BH3 peptide labeled at the NH2 terminus with fluorescein, was purchased from Genemed Synthesis (San Francisco, Calif.). COOH-terminal-truncated, His-tagged Bcl-XL was purchased from EMD Biosciences (San Diego, Calif.) and soluble glutathione S-transferase-fused Bcl-2 was obtained from Santa Cruz Biotechnology. The binding analysis was carried out in a dual-path length quartz cell with readings taken at […] at room temperature using a luminescence spectrometer according to an established procedure (19).
(§2) Determination of IC50 values—Data from cell viability and fluorescence polarization assays were analyzed by using the CalcuSyn software (Biosoft, Ferguson, Mo.) to determine IC50 values, in which the calculation was based on the medium-effect equation [i.e., log(fa/fu)=m log(D)−m log(Dm), where fa and fu denote fraction affected and unaffected, respectively; m represents the Hill-type coefficient signifying the sigmoidicity of the dose-effect curve; and D and Dm are the dose used and IC50, respectively.

Bcl-xL/Bak interactions = target: T1, Bcl-xL/Bak interactions (Homo sapiens, UniProt Q07817); test: Co-immunoprecipitation of Bcl-xL/Bak in PC-3 cells; assay type: cell-based
T1 construct: the endogenous counterpart in PC-3 cells; endogenous in cells; host or cells: PC-3 cells
T1 sequence (Q07817 whole entry): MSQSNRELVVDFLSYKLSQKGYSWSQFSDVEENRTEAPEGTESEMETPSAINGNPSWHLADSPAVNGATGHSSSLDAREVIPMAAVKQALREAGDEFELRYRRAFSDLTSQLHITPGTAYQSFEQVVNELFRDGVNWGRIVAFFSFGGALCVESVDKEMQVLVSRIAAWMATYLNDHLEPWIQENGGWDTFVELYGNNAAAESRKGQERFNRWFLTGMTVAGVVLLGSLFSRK
Protocol: (§3) Immunoblotting—Cells were seeded in 10% FBS-containing RPMI-1640 medium for 24 h and treated with various agents as aforementioned. After individual treatments for 24 h, the adherent cells in T-25 or T-75 flasks were scraped, combined with the medium, and centrifuged at 2200 rpm for 10 min. The […] were recovered, placed on ice, and triturated with 20 to 50 μL of a chilled lysis buffer (M-PER Mammalian Protein Extraction Reagent; Pierce, Rockford, Ill.), to which was added 1% protease inhibitor cocktail (set III; EMD Biosciences, Inc., San Diego, Calif.). After a 30-min incubation on ice, the mixture was centrifuged at 16,100×g for 3 min. […]
Co-immunoprecipitation—PC3 cells treated with 40 μM α-tocopheryl succinate or 10 μM TS-1 for 24 h were scraped off the flask, transferred into centrifuge tubes, and centrifuged at 2200 rpm for 10 min to pellet the cells. […] Equal amounts of proteins from these lysates, as determined by the Bradford assay, were mixed with anti-Bcl-2 or anti Bcl-XL antibodies in an orbital shaker at 23° C. for 2 h, followed by 100 μL of protein A-agarose bead slurry at 4° C. for 12 h. […]

Bcl-2/Bak interactions = target: T2, Bcl-2/Bak interactions (Homo sapiens, UniProt P10415); test: Co-immunoprecipitation of Bcl-2/Bak in PC-3 cells; assay type: cell-based
T2 construct: endogenous in cells; host or cells: PC-3 cells
T2 sequence (P10415 whole entry): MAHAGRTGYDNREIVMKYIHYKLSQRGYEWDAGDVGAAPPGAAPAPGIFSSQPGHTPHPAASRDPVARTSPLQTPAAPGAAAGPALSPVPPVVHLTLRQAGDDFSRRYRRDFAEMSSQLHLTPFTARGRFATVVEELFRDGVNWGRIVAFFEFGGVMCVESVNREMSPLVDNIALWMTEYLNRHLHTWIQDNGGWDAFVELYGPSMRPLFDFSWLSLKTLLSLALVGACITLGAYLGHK
Protocol: as §3
The pellet was resuspended in ice-cold 0.5 mL of radioimmunoprecipitation assay buffer (50 mM Tris-HCl, pH 7.4, 1% Nonidet P-40, 0.25% sodium deoxycholate, 150 mM NaCl, 1 mM EDTA, and 1% protease inhibitor cocktail) and gently mixed on an orbital shaker at 4° C. for 15 min, followed by centrifugation at 14,000×g for 15 min to yield cell lysates. […] Equal amounts of proteins from these lysates, as determined by the Bradford assay, were mixed with anti-Bcl-2 or anti Bcl-XL antibodies in an orbital shaker at 23° C. for 2 h, followed by 100 μL of protein A-agarose bead slurry at 4° C. for 12 h. […]

PC-3 cells [1] = test: Apoptosis detection in PC-3 cells (cell death ELISA, cytochrome c release, PARP cleavage); assay type: cell-based, human; conditions: 24 h, serum-free medium
Protocol: Apoptosis detection by ELISA—Induction of apoptosis was assessed with a Cell Death Detection ELISA kit (Roche Diagnostics) by following the manufacturer's instruction. This test is based on the quantitative determination of cytoplasmic histone-associated DNA fragments in the form of mononucleosomes and oligonucleosomes after induced apoptotic death. In brief, 5×10^6 cells were cultured in a T-25 flask in 10% FBS-containing medium for 24 h, and were treated with the test agents at various concentrations in serum-free medium for 24 hours. Both floating and adherent cells were collected; cell lysates equivalent to 5×10^5 cells were used in the ELISA.
Western blot analysis of cytochrome c release into the cytoplasm—Cytosolic-specific, mitochondria-free lysates were prepared according to an established procedure (18). In brief, after individual treatments for 24 h, both the incubation medium and adherent cells in T-75 flasks were collected and centrifuged at 600×g for 5 min. […] Bands were transferred to nitrocellulose membranes and analyzed by immunoblotting with anti-cytochrome c antibodies as described below. […]

LNCaP cells = test: MTT cell viability, LNCaP cells; assay type: cell-based, human; conditions: for activity in suppressing cell viability: even at 100 μM, 24 h
Protocol: as §1
(§4) Cell viability analysis—The effect of individual test agents on cell viability was assessed by using the MTT assay in 6 to 12 replicates. PC3, LNCaP, and B3-LNCaP cells were seeded and incubated in poly-p-lysine-coated, 96-well, flat-bottomed plates in RPMI 1640 medium supplemented with 10% FBS medium for 24 hours. PrEC cells were seeded at the recommend density in 96-well, flat-bottomed plates in Prostate Epithelial Cell Medium with growth supplements for 3 days. […] Absorbance at 570 nm was determined on a plate reader.
as §2

PC-3 cells [2] = test: MTT cell viability, PC-3 cells; assay type: cell-based, human; conditions: for activity in suppressing cell viability: even at 100 μM, 24 h
Protocol: as §1, §4, §2

LNCaP/B3 cells = test: MTT cell viability, Bcl-xL-overexpressing LNCaP (LNCaP/B3) cells; assay type: cell-based, human; conditions: LNCaP/B3 vs LNCaP cells, 24-h exposure; to a degree greater than that of PC-3 cells
Protocol: as §1, §4

Bcl-2 = Bcl-2 (Homo sapiens, UniProt P10415); test: Competitive fluorescence polarization assay, Bak BH3 peptide binding to Bcl-2; conditions: Flu-BakBH3, read-out: IC50, disruption of BH3 domain-mediated interactions (Bak BH3 peptide) with Bcl-2
Chain of Bcl-2 (P10415 whole entry, species assumed, the tested form may be a part): as the sequence (P10415 whole entry) above
Protocol: Competitive fluorescence polarization assay—The binding affinity of the test agent to Bcl-XL was analyzed by a competitive fluorescence polarization assay in which the ability of the agent to displace the binding of a Bak BH3-domain peptide to either Bcl-2 or Bcl-XL was determined. Flu-BakBH3, a Bak-BH3 peptide labeled at the NH2 terminus with fluorescein, was purchased from Genemed Synthesis (San Francisco, Calif.). COOH-terminal-truncated, His-tagged Bcl-XL was purchased from EMD Biosciences (San Diego, Calif.) and soluble glutathione S-transferase-fused Bcl-2 was obtained from Santa Cruz Biotechnology. […] Determination of IC50 values—Data from cell viability and fluorescence polarization assays were analyzed by using the CalcuSyn software (Biosoft, Ferguson, Mo.) to determine IC50 values, in which the calculation was based on the medium-effect equation [i.e., log(fa/fu)=m log(D)−m log(Dm), where fa and fu denote fraction affected and unaffected, respectively; m represents the Hill-type coefficient signifying the sigmoidicity of the dose-effect curve; and D and Dm are the dose used and IC50, respectively.

caspase-9 = test: Caspase-9 activation in PC-3 cells (Western blot); assay type: cell-based, human; conditions: 24 h
Protocol: (§5) Immunoblotting—Cells were seeded in 10% FBS-containing RPMI-1640 medium for 24 h and treated with various agents as aforementioned. After individual treatments for 24 h, the adherent cells in T-25 or T-75 flasks were scraped, combined with the medium, and centrifuged at 2200 rpm for 10 min. The […] were recovered, placed on ice, and triturated with 20 to 50 μL of a chilled lysis buffer (M-PER Mammalian Protein Extraction Reagent; Pierce, Rockford, Ill.), to which was added 1% protease inhibitor cocktail (set III; EMD Biosciences, Inc., San Diego, Calif.). After a 30-min incubation on ice, the mixture was centrifuged at 16,100×g for 3 min. Two μL of the suspension was taken for protein analysis using the Bradford assay kit (Bio-Rad, Hercules, Calif.); to the remaining solution was added the same volume of 2× SDS-polyacryl-amide gel electrophoresis sample loading buffer (100 mM Tris-HCl, pH 6.8, 4% SDS, 5% β-mercaptoethanol, 20% glycerol, and 0.1% bromphenol blue). The mixture was boiled for 10 min. Equal amounts of proteins were loaded onto 8-12% SDS-polyacrylamide gels. After electrophoresis, protein bands were transferred to nitrocellulose membranes in a semidry transfer cell. […]

[3] = system: Bcl-xL, Bcl-2, Bax, Bak, Bad, and Bid; test: Expression of Bcl-2 family members in PC-3 cells (Western blot); assay type: cell-based, human; conditions: 24 h, serum-free RPMI 1640
Protocol: as §5

[4] = 24-h exposure, serum-free RPMI 1640, MTT, read-out: IC50, proliferation inhibition

For Cc1c(C)c2c(c(C)c1OC(=O)CCC(=O)O)CCC(C)(CCCC(C)CCCC(C)C)O2 (stereo not shown) [TS-1, succinic acid mono-[2-(4,8-dimethyl-nonyl)-2,5,7,8-tetramethyl-chroman-6-yl]ester], the “antiproliferative effect on normal prostate epithelial cells” value (shortened to “antiproliferative effect”) (PrEC cells) was “resistant”, the “difference in IC50 between TS-1 and α-tocopheryl succinate in blocking Bak peptide binding to Bcl-xL” value (Bcl-xL) was 3 fold and the “intracellular binding of Bak to Bcl-xL” value (Bcl-xL/Bak interactions; 10 μM) was “abolished”. The “intracellular binding of Bak to Bcl-2” value (Bcl-2/Bak interactions; 10 μM) was “abolished” and the apoptotic death (PC-3 cells [1]) was “evidenced by DNA fragmentation, cytochrome c release, and PARP cleavage”.
In the case of Cc1c(C)c2c(c(C)c1OC(=O)CCC(=O)O)CCC(C)(C)O2 [TS-3, succinic acid mono-(2,2,5,7,8-pentamethyl-chroman-6-yl)ester], the “activity in suppressing cell viability” value (LNCaP cells) is reported as “lacked appreciable activity”, the “activity in suppressing cell viability” value (PC-3 cells [2]) is reported as “lacked appreciable activity” and the “Bcl-xL binding affinity (effect of structural change)” value (Bcl-xL) is reported as “abrogated the binding affinity”. The “activity in inhibiting Bak peptide-Bcl-xL binding” value (Bcl-xL) was “lacked appreciable activity”.
For Cc1c(C)c2c(c(C)c1O)CCC(C)(CCCC(C)CCCC(C)C)O2 (stereo not shown) [TS-4, 2-(4,8-dimethyl-nonyl)-2,5,7,8-tetramethyl-chroman-6-ol], the “activity in suppressing cell viability” value (LNCaP cells) was “lacked appreciable activity”, the “activity in suppressing cell viability” value (PC-3 cells [2]) was “lacked appreciable activity” and the “activity in inhibiting Bak peptide-Bcl-xL binding” value (Bcl-xL) was “lacked appreciable activity”.
In the case of Cc1c(C)c2c(c(C)c1OCCC(=O)O)CCC(C)(CCCC(C)CCCC(C)C)O2 (stereo not shown) [TS-5, 3-[2,5,7,8-tetramethyl-2-(4,8-dimethyl-nonyl)-chroman-6-yloxy]propionic acid], the “antiproliferative effect” value (PrEC cells) is reported as “resistant”.
For Cc1c(C)c2c(c(C)c1OC(=O)CCC(=O)O)CC[C@@](C)(CCC[C@H](C)CCC[C@H](C)CCCC(C)C)O2 [α-tocopheryl succinate, reference compound], the IC50 (LNCaP cells; [4]) was 15 µM, the IC50 (PC-3 cells [2]; [4]) was 40 µM and the “resistance to induced cell death by ectopic Bcl-xL expression” value (LNCaP/B3 cells) was “substantially increased the resistance”. The “antiproliferative effect” value (PrEC cells) was “resistant”, the IC50 (Bcl-xL; fluorescence polarization, Flu-BakBH3, read-out: IC50, disruption of BH3 domain-mediated interactions (Bak BH3 peptide) with Bcl-xL) was 26 ± 2 µM and the IC50 (Bcl-2) was 26 ± 2 µM. The “level of Bak associated with Bcl-xL” value (Bcl-xL/Bak interactions; 40 μM, 12 h, vs DMSO control) was “significantly reduced”, the “level of Bak associated with Bcl-2” value (Bcl-2/Bak interactions; 40 μM, 12 h, vs DMSO control) was “significantly reduced” and the apoptotic death (PC-3 cells [1]) was “evidenced by DNA fragmentation, cytochrome c release, and PARP cleavage”. For the same compound, the caspase-9 activation (caspase-9) was “in a dose-dependent manner”, the Bad expression [3] was “decrease” and the “expression level of Bcl-2 members other than Bad (Bcl-xL, Bcl-2, Bax, Bak, Bid)” value [3] was “did not cause appreciable changes”.

From patent US20080009545A1, “Anticancer agents” (The Ohio State University Research Foundation, priority 2006, published 2008)
